Values after ≈ are worked out from the molar mass of the structure shown. Read-outs that look alike come from different tables or passages of the source.
Legend:
E. coli 25922 = tested on: T1, E. coli 25922; assay: microbe, parasite or virus in culture; parameters: broth microdilution MIC, growth of E. coli, CLSI guidelines; details: Escherichia coli
T1 construct: ATCC 25922
Procedure: (§1) The MICs of three antibiotics (tetracycline, minocycline, and tigecycline) for strains were determined using the microbroth dilution method and the results were interpreted according to the CLSI guidelines. For tigecycline, the breakpoint was interpreted according to the FDA criteria (susceptible, ≤2 mg/L; intermediate, 4 mg/L; resistant, ≥8 mg/L)[9]. E. coli strain ATCC 25922 was used as a quality control. The tet(X2) (WP_063856436.1), tet(X3) (WP024160783), and tet(X4) (WP094309310) genes were amplified from dairy cows’ clinical isolates[25] by PCR with primers listed in Supplementary Table 1. Then these genes were constructed into pBAD-18Kan vector and IPTG-inducible pET28b vector, respectively. The recombinant plasmids pBAD-18-tet(X2), pBAD-18-tet(X3) and pBAD-18-tet(X4) were transformed into E. coli BW25113 and followed by antimicrobial susceptibility tests. In addition, the recombinant plasmids pET28-6×His-tet(X2), pET28-6×His-tet(X3) and pET28-6×His-tet(X4) were transformed into E. coli strain BL21(DE3) for protein purification. Point mutations were introduced into the tet(X2) gene, tet(X3) gene and tet(X4) by using the QuickChange (Stratagene) commercial kit, following the manufacturer’s instructions, and confirmed by sequencing. Primers used in mutagenesis are also listed in Supplementary Table 1.

[1] = tested on: T2, Escherichia coli Vector control; assay: microbe, parasite or virus in culture; parameters: broth microdilution MIC, growth of E. coli, CLSI guidelines; details: empty pBAD18 vector
T2 construct: BW25113 empty pBAD18-Kan vector
Procedure: as §1

[2] = tested on: CN(C)c1cc(NC(=O)CNC(C)(C)C)c(O)c2c1C[C@H]1C[C@H]3[C@H](N(C)C)C(=O)C(C(N)=O)=C(O)[C@@]3(O)C(=O)C1=C2O; assay: purified protein; format: biochemical, Escherichia coli; details: 0.1 M TAPS pH 8.5, 5 mM MgCl2, 500 µM NADPH, ambient temperature

CN(C)c1cc(NC(=O)CNC(C)(C)C)c(O)c2c1C[C@H]1C[C@H]3[C@H](N(C)C)C(=O)C(C(N)=O)=C(O)[C@@]3(O)C(=O)C1=C2O [tigecycline]
MIC (E. coli 25922; read-out: MIC (mg/L) / TGC): 0.25 mg/L (≈ 0.427 µM)
MIC ([1]; read-out: MIC (mg/L) / TGC): 0.5 mg/L (≈ 0.854 µM)

CN(C)c1ccc(O)c2c1C[C@H]1C[C@H]3[C@H](N(C)C)C(O)=C(C(N)=O)C(=O)[C@@]3(O)C(O)=C1C2=O [minocycline]
MIC (E. coli 25922; read-out: MIC (mg/L) / MIN): 0.25 mg/L (≈ 0.546 µM)
MIC ([1]; read-out: MIC (mg/L) / MIN): 1 mg/L (≈ 2.19 µM)

Tet(X4) (Escherichia coli)
Km [2]: 1.73 ± 0.09 µM
kcat [2]: 2 ± 0.02 s⁻¹
kcat/Km [2]: 1.16e+06 M⁻¹ s⁻¹

CN(C)[C@@H]1C(O)=C(C(N)=O)C(=O)[C@@]2(O)C(O)=C3C(=O)c4c(O)cccc4[C@@](C)(O)[C@H]3C[C@@H]12 [tetracycline]
MIC (E. coli 25922; read-out: MIC (mg/L) / TET^a): 1 mg/L (≈ 2.25 µM)
MIC ([1]; read-out: MIC (mg/L) / TET^a): 2 mg/L (≈ 4.5 µM)

Reference: article PMC9156754, “Functional and phylogenetic analysis of TetX variants to design a new classification system” (Communications Biology, 2022)
